We go through 15 molecules from patent US12612424B2, “HPK1 inhibitors and uses thereof” (Regor Pharmaceuticals, Inc., priority 2019, dated 2026).

Like-named read-outs stand apart in the source and are kept apart here. Some results are limits rather than exact numbers.

In one assay the target is T1, JAK3 (Homo sapiens, UniProt P52333).
T1 construct: purchased Thermo fisher PV3855
Description: JAK3 biochemical assay (ADP-GLO Kinase Assay). As to conditions: for JAKs/HPK1 IC50 Ratio, B* / JAKs/HPK1 IC50 Ratio, N*: ratio of JAK3 IC50 to HPK1 IC50; for JAKs/HPK1 IC50 Ratio, B*: first testing facility; for JAKs/HPK1 IC50 Ratio, N*: second testing facility. The method, boiled down:
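Human JAK3 (0.78 ng) with 0.2 μg/μL Poly(E4Y1) and 4 μM ATP in 40 mM Tris pH 7.5, 20 mM MgCl2, 0.1 mg/ml BSA, 50 μM DTT, 1% DMSO; 60 min at 25 °C. ADP formed read by ADP-Glo luminescence. 10-dose 3-fold series from 10 μM; IC50 by three-parameter logistic fit.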
(In general: ADP-Glo turns the ADP formed in a reaction into a luminescent signal.)

The target in the next assay is HPK1 (Homo sapiens, UniProt Q92918). The assay can be described thus: HPK1 biochemical assay (ADP-GLO Kinase Assay). The method, boiled down:
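HPK1 (0.6 ng/μL final) activity was followed with MBP substrate and 10 μM ATP in Tris pH 7.5/MgCl2/BSA/DTT buffer, measured by ADP-Glo luminescence. Compounds were tested as 3-fold dilutions from 10 μM. IC50 came from a three-parameter logistic fit, with inhibition normalised to high/low controls.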

Setting [1] is: B*: testing performed in a first testing facility, read-out: JAK3 IC50 (nM) Relative, B*.
Where [2] appears, read: N*: testing performed in a second testing facility, read-out: JAK3 IC50 (nM) Relative, N*.
[3] abbreviates: B*: testing performed in a first testing facility, read-out: HPK1 IC50 (nM) Relative, B*.
Setting [4] is: N*: testing performed in a second testing facility, read-out: HPK1 IC50 (nM) Relative, N*.

T1 sequence (P52333 781-1124 limits assumed): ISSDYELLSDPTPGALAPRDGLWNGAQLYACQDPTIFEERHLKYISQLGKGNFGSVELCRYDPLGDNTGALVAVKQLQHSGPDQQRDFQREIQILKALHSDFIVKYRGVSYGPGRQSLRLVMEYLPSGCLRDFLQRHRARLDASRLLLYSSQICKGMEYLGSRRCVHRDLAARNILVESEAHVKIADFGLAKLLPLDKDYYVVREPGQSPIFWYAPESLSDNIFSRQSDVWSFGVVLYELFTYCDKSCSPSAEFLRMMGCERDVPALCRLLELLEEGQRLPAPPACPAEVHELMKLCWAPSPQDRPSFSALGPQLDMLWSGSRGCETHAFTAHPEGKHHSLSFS
Sequence of HPK1 (Q92918 whole entry): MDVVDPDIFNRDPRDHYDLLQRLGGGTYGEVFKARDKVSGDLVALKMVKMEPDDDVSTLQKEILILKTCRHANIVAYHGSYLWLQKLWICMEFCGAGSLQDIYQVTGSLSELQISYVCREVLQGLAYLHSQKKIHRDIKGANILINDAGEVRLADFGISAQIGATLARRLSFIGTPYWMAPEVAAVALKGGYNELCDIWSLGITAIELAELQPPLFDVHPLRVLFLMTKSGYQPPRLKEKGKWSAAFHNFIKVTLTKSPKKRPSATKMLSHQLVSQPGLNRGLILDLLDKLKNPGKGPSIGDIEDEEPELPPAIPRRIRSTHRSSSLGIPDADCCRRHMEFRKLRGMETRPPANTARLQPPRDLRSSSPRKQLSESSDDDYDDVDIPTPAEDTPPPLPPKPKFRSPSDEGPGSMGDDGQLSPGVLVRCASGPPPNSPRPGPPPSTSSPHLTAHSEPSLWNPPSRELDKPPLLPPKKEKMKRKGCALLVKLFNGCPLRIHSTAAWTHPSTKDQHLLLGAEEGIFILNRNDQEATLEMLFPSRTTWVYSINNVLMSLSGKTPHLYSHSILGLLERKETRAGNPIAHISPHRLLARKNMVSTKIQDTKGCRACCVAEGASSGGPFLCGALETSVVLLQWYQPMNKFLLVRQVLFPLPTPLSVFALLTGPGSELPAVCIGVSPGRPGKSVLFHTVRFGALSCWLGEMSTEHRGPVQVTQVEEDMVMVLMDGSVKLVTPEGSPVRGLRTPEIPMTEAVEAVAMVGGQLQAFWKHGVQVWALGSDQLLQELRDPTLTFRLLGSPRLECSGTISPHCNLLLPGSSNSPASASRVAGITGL

Broadly, the IC50 is the concentration that gives 50% inhibition. On to `COc1nc2c(cc1Nc1ncc(Cl)c(N3CCc4ccccc43)n1)CN(C)CC2` [Example 19, N-(5-chloro-4-(indolin-1-yl)pyrimidin-2-yl)-2-methoxy-6-methyl-5,6,7,8-tetrahydro-1,6-naphthyridin-3-amine], for which the IC50 at JAK3 (setting [1]) was 500 to 1000 nM; at JAK3 (setting [2]), 100 to 500 nM; at HPK1 (setting [3]), not above 100 nM; at HPK1 (setting [4]) it was not above 100 nM.
As for `COc1cc2c(cc1Nc1ncc(Cl)c(N3CCc4ccc(F)cc43)n1)CN(C)CC2` [Example 21, N-(5-chloro-4-(6-fluoroindolin-1-yl)pyrimidin-2-yl)-6-methoxy-2-methyl-1,2,3,4-tetrahydroisoquinolin-7-amine], the values for the IC50 at JAK3 (setting [1]) and on HPK1 (setting [3]) were more than 1000 nM and not above 100 nM, respectively. For the same molecule, on JAK3, the “JAKs/HPK1 IC50 Ratio, B*” value came to 280.
For the molecule `COc1cc2c(cc1Nc1ncc(Cl)c(N3CCc4ccccc43)n1)CNCC2` [Example 23, N-(5-chloro-4-(indolin-1-yl)pyrimidin-2-yl)-6-methoxy-1,2,3,4-tetrahydroisoquinolin-7-amine], the IC50 is 100 to 500 nM on JAK3 (setting [1]) and not above 100 nM at HPK1 (setting [3]). Further, on JAK3, the “JAKs/HPK1 IC50 Ratio, B*” value was 59.
As for `COc1cc2c(cc1Nc1ncc(Cl)c(N3CC(C(N)=O)c4ccccc43)n1)CN(C)CC2` (stereo not drawn) [Example 33, 1-(5-Chloro-2-((6-methoxy-2-methyl-1,2,3,4-tetrahydroisoquinolin-7-yl)amino)pyrimidin-4-yl)indoline-3-carboxamide], the IC50 on JAK3 (setting [1]) and on HPK1 (setting [3]) was not above 100 nM throughout. For the same molecule, on JAK3, the “JAKs/HPK1 IC50 Ratio, B*” value worked out at 140.
Take `COc1cc2c(cc1Nc1ncc3ccn(-c4ccccn4)c3n1)CN(C)CC2` [Example 37, 6-Methoxy-2-methyl-N-(7-(pyridin-2-yl)-7H-pyrrolo[2,3-d]pyrimidin-2-yl)-1,2,3,4-tetrahydroisoquinolin-7-amine]: the IC50 is more than 1000 nM on JAK3 (setting [2]), not above 100 nM on HPK1 (setting [3]) and not above 100 nM at HPK1 (setting [4]). On JAK3, the “JAKs/HPK1 IC50 Ratio, N*” value was 608.
Turning to `COc1cc2c(cc1Nc1ncc(Cl)c(N3CC(C)(C)c4ccccc43)n1)CN(C)CC2` [Example 25, N-(5-Chloro-4-(3,3-dimethylindolin-1-yl)pyrimidin-2-yl)-6-methoxy-2-methyl-1,2,3,4-tetrahydroisoquinolin-7-amine], the IC50 on JAK3 (setting [1]) was 100 to 500 nM; on HPK1 (setting [3]), not above 100 nM. In addition, at JAK3, the “JAKs/HPK1 IC50 Ratio, B*” value was determined as 218.
On to `COc1cc2c(cc1Nc1ncc(Cl)c(N3CC(C(=O)O)c4ccccc43)n1)CN(C)CC2` (stereo not drawn) [Example 32, 1-(5-Chloro-2-((6-methoxy-2-methyl-1,2,3,4-tetrahydroisoquinolin-7-yl)amino)pyrimidin-4-yl)indoline-3-carboxylic acid], for which the IC50 on JAK3 (setting [1]) and at HPK1 (setting [3]) was not above 100 nM throughout. The “JAKs/HPK1 IC50 Ratio, B*” value on JAK3 was 90.
As to `COc1cc2c(cc1Nc1ncc(Cl)c(N3CCc4ccccc43)n1)CN(C(C)C)CC2` [Example 22, N-(5-chloro-4-(indolin-1-yl)pyrimidin-2-yl)-2-isopropyl-6-methoxy-1,2,3,4-tetrahydroisoquinolin-7-amine], the IC50 on JAK3 (setting [1]) was more than 1000 nM; on HPK1 (setting [3]), not above 100 nM. Also, the “JAKs/HPK1 IC50 Ratio, B*” value at JAK3 is listed as 223.
As for `COc1cc2c(cc1Nc1ncc(Cl)c(-n3cc(P(C)(C)=O)c4ccccc43)n1)CN(C)CC2` [Example 1, (1-(5-Chloro-2-((6-methoxy-2-methyl-1,2,3,4-tetrahydroisoquinolin-7-yl)amino)pyrimidin-4-yl)-1H-indol-3-yl)dimethylphosphine oxide], the IC50 is more than 1000 nM at JAK3 (setting [1]), more than 1000 nM on JAK3 (setting [2]), not above 100 nM on HPK1 (setting [3]) and not above 100 nM at HPK1 (setting [4]). Also, the “JAKs/HPK1 IC50 Ratio, B*” value at JAK3 was 285. The “JAKs/HPK1 IC50 Ratio, N*” value on JAK3 was more than 558.
`COc1cc2c(cc1Nc1ncc(Cl)c(-n3cc(C(N)=O)c4ccccc43)n1)CN(C)CC2` [Example 34]: the results for the IC50 on JAK3 (setting [1]) and on HPK1 (setting [3]) were 500 to 1000 nM and not above 100 nM, respectively. The “JAKs/HPK1 IC50 Ratio, B*” value at JAK3 came out at 101.
`COc1cc2c(cc1Nc1ncc3ccn(-c4ccccc4)c3n1)CN(C)CC2` [Example 36, 6-methoxy-2-methyl-N-(7-phenyl-7H-pyrrolo[2,3-d]pyrimidin-2-yl)-1,2,3,4-tetrahydroisoquinolin-7-amine]: the IC50 was more than 1000 nM on JAK3 (setting [2]), not above 100 nM on HPK1 (setting [3]) and not above 100 nM on HPK1 (setting [4]). In addition, the “JAKs/HPK1 IC50 Ratio, N*” value at JAK3 turned out to be 287.
In the case of `COc1cc2c(cc1Nc1ncc(Cl)c(N3CCc4cc(F)ccc43)n1)CN(C)CC2` [Example 20, N-(5-chloro-4-(5-fluoroindolin-1-yl)pyrimidin-2-yl)-6-methoxy-2-methyl-1,2,3,4-tetrahydroisoquinolin-7-amine], the IC50 at JAK3 (setting [1]) was 100 to 500 nM; at HPK1 (setting [3]), not above 100 nM. In addition, on JAK3, the “JAKs/HPK1 IC50 Ratio, B*” value turned out to be 88.
For the molecule `COc1cc2c(cc1Nc1ncc(Cl)c(-n3ncc4ccccc43)n1)CN(C)CC2` [Example 24, N-(5-Chloro-4-(1H-indazol-1-yl)pyrimidin-2-yl)-6-methoxy-2-methyl-1,2,3,4-tetrahydroisoquinolin-7-amine], the values for the IC50 at JAK3 (setting [1]) and on HPK1 (setting [3]) were more than 1000 nM and not above 100 nM, respectively. For the same molecule, the “JAKs/HPK1 IC50 Ratio, B*” value at JAK3 is on record as 79.
`COc1nc2c(cc1Nc1ncc(Cl)c(N3CCc4ncccc43)n1)CN(C)CC2` [Example 29, N-(5-Chloro-4-(2,3-dihydro-1H-pyrrolo[3,2-b]pyridin-1-yl)pyrimidin-2-yl)-2-methoxy-6-methyl-5,6,7,8-tetrahydro-1,6-naphthyridin-3-amine]: the IC50 on JAK3 (setting [1]) is 500 to 1000 nM; on JAK3 (setting [2]), 100 to 500 nM; at HPK1 (setting [3]), not above 100 nM; on HPK1 (setting [4]), not above 100 nM. At JAK3, the “JAKs/HPK1 IC50 Ratio, B*” value stood at 223. The “JAKs/HPK1 IC50 Ratio, N*” value on JAK3 is 286.
Turning to `COc1cc2c(cc1Nc1ncc(Cl)c(-n3cc(C(=O)O)c4ccccc43)n1)CN(C)CC2` [Example 35], the IC50 was 100 to 500 nM on JAK3 (setting [1]) and not above 100 nM on HPK1 (setting [3]). Besides, on JAK3, the “JAKs/HPK1 IC50 Ratio, B*” value is recorded as 78.
